Structures are written as SMILES. Bounds are passed on as bounds.

For test [1], the target named is T1, PD-1/PD-L1 interaction (Homo sapiens, UniProt Q9NZQ7).
T1 construct: expressed in transfected cells; Jurkat cells (PD-1 plus NFAT-luciferase)
Briefly: PD-1/PD-L1 NFAT Reporter Assay. Format: cell-based. The note with it: co-culture of PD-L1 expressing CHO cells and PD-1 overexpressing Jurkat cells, 6 hrs, NFAT luciferase. How it is done: Blocking the PD-1/PD-L1 interaction will release the inhibitory signal and results in TCR signaling and NFAT-mediated luciferase activity.
CHO cells expressing surface-bound anti-CD3 antibodies and PD-L1 were first seeded overnight and treated with the compounds. Jurkat cells overexpressing PD-1 and a luciferase construct under NFAT promoter were then immediately seeded on the monolayer of CHO cells. The co-culture was then incubated for 6 hrs at 37° C. Luciferase activity was assessed by adding the ONE-Glo reagent and measuring luminescence with a plate reader. EC50 values were determined from the fit of the dose-response curves.
On the technique in general: A reporter such as luciferase makes a cellular process visible.

Test [2] deals with PDL1/PD1 (Homo sapiens, UniProt Q9NZQ7). The test is described as follows: PDL1/PD1 Binding Assay. The conditions noted are these: PDL1-6×His 0.3 nM, PD1-Fc-Avi-Biotin 2.5 nM, Acceptor/Donor beads; read-out: PD-1/PD-L1 PPI IC50. How it is done:
Compounds to be tested were serially diluted in DMSO, and further diluted in assay buffer (25 mM Hepes pH 7.4, 150 mM NaCl, 0.005% Tween 20, BSA 0.01%). Diluted compounds were added to the wells with final concentration of DMSO at 1%. PDL1-6×His protein was added to the wells, mixed well with compound. The plates were incubated for 30 min at room temperature. PD1-Fc-Avi-Biotin protein was added to the wells. Final concentration of PDL1 and PD1 protein is 0.3 nM and 2.5 nM, respectively. After a binding time of 30 min at room temperature, Anti-6×His Acceptor beads (final concentration 20 ug/ml) were added to the wells, and the incubation continued for 1 h. Streptavidin Donor beads (final concentration 20 ug/mL) were added at reduced light. The plates were sealed with foil and incubated in the dark for additional 1 h or overnight before reading on an Envision reader. The IC50 values were determined by fitting the curves using a four-parameter equation in Graphpad Prism 8.

T1 sequence (Q9NZQ7 19-290): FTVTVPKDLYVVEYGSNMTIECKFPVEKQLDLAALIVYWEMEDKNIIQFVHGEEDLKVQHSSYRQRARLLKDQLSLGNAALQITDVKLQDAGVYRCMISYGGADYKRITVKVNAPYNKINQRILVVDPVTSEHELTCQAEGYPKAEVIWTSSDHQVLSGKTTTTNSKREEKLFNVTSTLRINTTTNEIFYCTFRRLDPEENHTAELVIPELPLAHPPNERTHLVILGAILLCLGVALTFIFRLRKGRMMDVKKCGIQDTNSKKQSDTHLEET
Sequence of PDL1/PD1 (Q9NZQ7 19-238 limits assumed): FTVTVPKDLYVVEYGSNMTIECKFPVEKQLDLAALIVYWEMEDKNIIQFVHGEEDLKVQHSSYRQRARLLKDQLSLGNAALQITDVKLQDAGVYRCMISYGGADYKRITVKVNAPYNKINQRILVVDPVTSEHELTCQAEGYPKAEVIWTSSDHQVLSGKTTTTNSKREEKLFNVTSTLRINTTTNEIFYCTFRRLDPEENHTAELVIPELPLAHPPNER

What is called EC50 is the midpoint of the concentration-response curve. Lower therefore signals greater potency. `CCOC(=O)[C@@H]1CN(Cc2ccc(-c3cccc(-c4cccc(NC(=O)c5ccnn(C)c5=O)c4Cl)c3Cl)nc2OC)C(=O)O1` [Compound H-1] had an EC50 in test [1] of more than 5000 nM.

With `COc1nc(-c2cccc(-c3cccc(NC(=O)c4ccn[nH]c4=O)c3Cl)c2Cl)cnc1CN1CC2(CCC(=O)N2)C1` [Compound A-2], in test [2], the IC50 was not above 10 nM. Also, the concentration giving a half-maximal response (EC50) in test [1] was 10 to 100 nM. For the molecule `COc1nc(-c2cccc(-c3cccc(NC(=O)c4ccnn(C)c4=O)c3Cl)c2Cl)ccc1CN1CC(C(=O)NS(C)(=O)=O)C1` [Compound C-46], the EC50 in test [1] fell in the range of 10 to 100 nM. In the case of `CCOC(=O)C1CN(Cc2cc(F)c(-c3cccc(-c4cccc(NC(=O)c5ccnn(C)c5=O)c4Cl)c3Cl)nc2OC)C1` [Compound C-77], the IC50 in test [2] was not above 10 nM. In test [1], this molecule gave an EC50 of 10 to 100 nM. On to `COc1nc(-c2cccc(-c3cccc(NC(=O)c4ccnn(C)c4=O)c3Cl)c2Cl)ccc1CN[C@H](C(=O)O)C(C)C` [Compound C-28], for which the IC50 in test [2] was not above 10 nM. The molecule also registered an EC50 in test [1] of 100 to 1000 nM. In the same order, the values of `COc1nc(-c2cccc(-c3cccc(NC(=O)c4ccnn(C)c4=O)c3Cl)c2Cl)ccc1CNC[C@H](C)C(=O)O` [Compound C-36] are not above 10 nM and 10 to 100 nM. With `COc1nc(-c2cccc(-c3cccc(NC(=O)c4ccnn(C)c4=O)c3Cl)c2Cl)ccc1CN[C@@H](C)C(=O)O` [Compound C-29], in test [2], the IC50 is not above 10 nM. In test [1], this molecule displayed an EC50 of 10 to 100 nM. As for `COc1nc(-c2cccc(-c3cccc(NC(=O)c4ccnn(C)c4=O)c3Cl)c2Cl)cnc1CN1CC(O)C1` [Compound C-84], the 50% effective concentration (EC50) in test [1] lay in the range of 10 to 100 nM. On to `COc1nc(-c2cccc(-c3cccc(NC(=O)c4ccnn(C)c4=O)c3Cl)c2Cl)ccc1CNC[C@H](C)O` [Compound C-3], for which the IC50 in test [2] is not above 10 nM. The concentration giving a half-maximal response (EC50) in test [1] lay in the range of 10 to 100 nM. On to `COc1nc(-c2cccc(-c3cccc(NC(=O)c4ccnn(C)c4=O)c3Cl)c2Cl)cnc1CNC[C@@H]1CCC(=O)N1` [Compound B-1], for which, in test [2], the IC50 was not above 10 nM. The same molecule showed an EC50 in test [1] of 10 to 100 nM. `COc1nc(-c2cccc(-c3cccc(NC(=O)c4ccnn(C)c4=O)c3Cl)c2Cl)ccc1CN1CC(C(=O)O)C1` [Compound C-9]: the IC50 in test [2] was not above 10 nM. The molecule further showed an EC50 in test [1] not above 10 nM. With `CCOC(=O)CCN(Cc1ccc(-c2cccc(-c3cccc(NC(=O)c4ccnn(C)c4=O)c3Cl)c2Cl)nc1OC)C(=O)OCc1oc(=O)oc1C` [Compound F-1], in test [1], the EC50 lay within 100 to 1000 nM.

`COc1nc(-c2cccc(-c3cccc(NC(=O)c4ccnn(C)c4=O)c3Cl)c2Cl)ccc1CNC1CCC[C@@H]1C(=O)O` (stereo partly shown) [Compound C-39]: the IC50 in test [2] was not above 10 nM. Besides, the concentration giving a half-maximal response (EC50) in test [1] was in the range of 10 to 100 nM. With `CCOC(=O)C1CN(Cc2ccc(-c3cccc(-c4cccc(NC(=O)c5ccnn(C)c5=O)c4C)c3Cl)nc2OC)C1` [Compound C-53], in test [2], the IC50 was not above 10 nM. Besides, in test [1], the EC50 was 10 to 100 nM.

For `COc1nc(-c2cccc(-c3cccc(NC(=O)c4ccnn(C)c4=O)c3Cl)c2Cl)cnc1CN1CC2(CCC(=O)N2)C1` [Compound A-1], the IC50 in test [2] was not above 10 nM. In test [1], this molecule returned an EC50 of 10 to 100 nM. For `CCOC(=O)C1CN(Cc2c(C)cc(-c3cccc(-c4cccc(NC(=O)c5ccnn(C)c5=O)c4C)c3Cl)nc2OC)C1` [Compound C-90], in test [2], the IC50 is not above 10 nM. For the same molecule, the concentration giving a half-maximal response (EC50) in test [1] fell in the range of 10 to 100 nM.

For the molecule `COc1nc(-c2cccc(-c3cccc(NC(=O)c4ccnn(C)c4=O)c3Cl)c2Cl)ccc1CN1CCC[C@@H]1CC(=O)O` [Compound C-33], in test [2], the IC50 was not above 10 nM. This molecule registered an EC50 in test [1] of 10 to 100 nM. With `COc1cc(C(=O)Nc2cccc(-c3cccc(-c4ccc(CN[C@@H]5CCOC[C@@H]5O)c(OC)n4)c3Cl)c2Cl)c(=O)n(C)n1` [Compound C-92], in test [2], the IC50 is not above 10 nM. In test [1], this molecule returned an EC50 of 10 to 100 nM. In the same order, the values of `COc1nc(-c2cccc(-c3cccc(NC(=O)c4ccnn(C)c4=O)c3Cl)c2Cl)ccc1CNC[C@@H](C)O` [Compound C-4] are not above 10 nM and not above 10 nM. In the same order, the values of `CCOC(=O)[C@@H]1CCN(Cc2ccc(-c3cccc(-c4cccc(NC(=O)c5ccnn(C)c5=O)c4Cl)c3Cl)nc2OC)C1` [Compound C-14] are 10 to 100 nM and 10 to 100 nM. For `COc1nc(-c2cccc(-c3cccc(NC(=O)c4ccnn(C)c4=O)c3Cl)c2Cl)ccc1CN1CC[C@H](C(=O)O)C1` [Compound C-17] the same measures were not above 10 nM and 10 to 100 nM. For `COc1nc(-c2cccc(-c3cccc(NC(=O)c4ccnn(C)c4=O)c3Cl)c2Cl)ccc1CN1CC(C)(C(=O)O)C1` [Compound C-20], the IC50 in test [2] is not above 10 nM. Further, the 50% effective concentration (EC50) in test [1] fell in the range of 10 to 100 nM. In the same order, the values of `COc1nc(-c2cccc(-c3cccc(NC(=O)c4ccnn(C)c4=O)c3Cl)c2Cl)ccc1CN1CCO[C@@H](C(=O)O)C1` [Compound C-30] are not above 10 nM and 100 to 1000 nM.

As to `COc1nc(-c2cccc(-c3cccc(NC(=O)c4ccnn(C)c4=O)c3Cl)c2Cl)ccc1CN[C@@H](CO)C(=O)O` [Compound C-47], the IC50 in test [2] is not above 10 nM. Besides, the concentration for a half-maximal effect (EC50) in test [1] fell in the range of 10 to 100 nM.

Turning to `COc1nc(-c2cccc(-c3cccc(NC(=O)c4ccnn(C)c4=O)c3Cl)c2Cl)ccc1CN1C(=O)O[C@H]2COCC[C@H]21` [Compound E-1], the IC50 in test [2] is not above 10 nM. In addition, the EC50 in test [1] was more than 10000 nM. For `CCOC(=O)CCNCc1ccc(-c2cccc(-c3cccc(NC(=O)c4ccnn(C)c4=O)c3Cl)c2Cl)nc1OC` [Compound C-94], in test [1], the EC50 lay in the range of 10 to 100 nM. Consider `COc1nc(-c2cccc(-c3cccc(NC(=O)c4ccnn(C)c4=O)c3C)c2Cl)cnc1CN1CC(O)C1` [Compound C-86], for which, in test [1], the half-maximal effective concentration (EC50) was not above 10 nM.

`COc1nc(-c2cccc(-c3cccc(NC(=O)c4ccnn(C)c4=O)c3Cl)c2Cl)ccc1CNCCC(=O)O` [Compound C-93] yielded an EC50 in test [1] of 10 to 100 nM. Consider `CCOC(=O)C1(C)CN(Cc2ccc(-c3cccc(-c4cccc(NC(=O)c5ccnn(C)c5=O)c4C)c3Cl)nc2OC)C1` [Compound C-59], for which the IC50 in test [2] is not above 10 nM. The molecule `COc1nc(-c2cccc(-c3cccc(NC(=O)c4ccnn(C)c4=O)c3C)c2Cl)ccc1CN1CC(F)(C(=O)O)C1` [Compound C-62] had an EC50 in test [1] of 100 to 1000 nM.

On to `COc1nc(-c2cccc(-c3cccc(NC(=O)c4ccnn(C)c4=O)c3Cl)c2Cl)cnc1CN[C@@H]1CCOC[C@@H]1O` [Compound C-83], for which, in test [1], the EC50 is 10 to 100 nM. Same read-out and setting: for `COc1nc(-c2cccc(-c3cccc(NC(=O)c4ccnn(C)c4=O)c3C)c2C)ccc1CN1C[C@@H](O)[C@@H]1C` [Compound C-74] the value was more than 5000 nM; for `COc1nc(-c2cccc(-c3cccc(NC(=O)c4ccnn(C)c4=O)c3Cl)c2Cl)cnc1CN1CC[C@H](O)C1` [Compound C-85], not above 10 nM. On the same count and under the same terms, with `COc1nc(-c2cccc(-c3cccc(NC(=O)c4ccnn(C)c4=O)c3C)c2C)ccc1CN[C@@H]1CCOC[C@@H]1O` [Compound C-71] the figure was not above 10 nM.

On to `COc1nc(-c2cccc(-c3cccc(NC(=O)c4ccnn(C)c4=O)c3Cl)c2Cl)ccc1CN[C@@H]1CN(C(C)=O)C[C@@H]1O` [Compound C-45], for which the EC50 in test [1] fell in the range of 10 to 100 nM.

In turn, `CCOC(=O)[C@@H](O)CNCc1ccc(-c2cccc(-c3cccc(NC(=O)c4ccnn(C)c4=O)c3Cl)c2Cl)nc1OC` [Compound G-1] had an EC50 in test [1] of 10 to 100 nM. The same measure, in the same setting: with `COc1nc(-c2cccc(-c3cccc(NC(=O)c4ccnn(C)c4=O)c3C)c2Cl)ccc1CN[C@@H]1CCOC[C@@H]1O` [Compound C-52] the figure was more than 5000 nM.

The record behind these values is patent US12428427B2, “Methods and compositions for targeting PD-L1” (Aligos Therapeutics, Inc., priority 2021, dated 2025).
